Laboratory results published in publication PMC3362575, “Synthesis and Biological Evaluation of Phenanthrenes as Cytotoxic Agents with Pharmacophore Modeling and ChemGPS-NP Prediction as Topo II Inhibitors” (PLoS ONE, 2012).
≈ marks a conversion by molar mass, not a printed value. Like-named read-outs stand apart in the source and are kept apart here.

Legend:
MDA-MB-231 = experiment: MTT cytotoxicity assay, MDA-MB-231; type: cell-based, human; conditions: for IC50: Homo sapiens
Procedure: (§1) The cytotoxic assay of 11 naturally occurring and 19 synthesized phenanthrenes was carried out on a diverse set of human liver (HepG2 and Hep3B), oral (Ca9-22), lung (A549) and breast (MEA-MB-231 and MCF7) cancer cell lines, and a human fetal lung fibroblast (MRC-5) cell line (Tables 1 and 2).
(§2) Compounds were tested against human liver (HepG2 and Hep3B), oral (Ca9-22), lung (A549), breast (MEA-MB-231 and MCF7) cancer cell lines, and the human fetal lung fibroblast (MRC-5) cell line using an established colorimetric MTT assay protocol. The absorbance was measured at 550 nm using a microplate reader. The IC50 is the concentration of agent that reduced cell growth by 50% under the experimental conditions.

Hep3B = experiment: MTT cytotoxicity assay, Hep3B; type: cell-based, human; conditions: for IC50: Homo sapiens, Hep3B
Procedure: as §1, §2

Ca9-22 = experiment: MTT cytotoxicity assay, Ca9-22; type: cell-based, human; conditions: for IC50: Homo sapiens
Procedure: as §1, §2

A549 = experiment: MTT cytotoxicity assay, A549; type: cell-based, human; conditions: for IC50: Homo sapiens
Procedure: as §1, §2

MRC-5 = experiment: MTT cytotoxicity assay, MRC-5 fetal lung fibroblast; type: cell-based, human; conditions: normal fetal lung fibroblast; for IC50: Homo sapiens
Procedure: as §1, §2

MCF-7 = experiment: MTT cytotoxicity assay, MCF-7; type: cell-based, human; conditions: for IC50 / MCF-7 activity class (from IC50): Homo sapiens; for MCF-7 activity class (from IC50): MCF7, Table S3, read-out: Scale Exptl. (MCF-7 activity class)
Procedure: as §1, §2
The pharmacophore modeling with Catalyst HypoGen was performed via Discovery Studio 2.1 (Accelrys, San Diego, CA, USA). Twenty-nine phenanthrene derivatives were collected from the natural plant, C. arisanensis, and from chemical synthesis (Figure 2). Cytotoxicity against MCF-7 cells was determined by the MTT assay and the concentration (µg/mL) of test compound which inhibited 50% of the cancer cells (IC50) was used in the generation of the pharmacophore model. An IC50 value of >20 µg/mL was defined as 20 µg/mL. All experimental IC50 values spanned about 2–3 orders of magnitude from 0.09 to 20 µg/mL. The 2D/3D structures of compounds were generated using ChemBioOffice 2008 (Cambridge Scientic Computing, Cambridge, Massachusetts, USA) and then optimized in a Dreiding force field. The conformational ensemble of each compound was generated using the best conformational analysis method based on a CHARMM force field with a 20 kcal/mol energy threshold above the global minimum. A maximum limit of 255 conformations was used to cover maximum conformational space. The best 3D arrangements of chemical functionalities should explain the activity variations among the 29 compounds. Thirty runs with different parameters were performed for the best pharmacophore hypothesis. Four chemical features, including hydrogen-bond acceptor (HBA), hydrogen-bond donor (HBD), hydrophobic (HYD), and aromatic ring (AR) features, were also tested during the building of pharmacophore hypotheses (Table S1; Text S1). The best hypotheses were selected via a correlation and a cost analysis in Catalyst HypoGen.

HepG2 = experiment: MTT cytotoxicity assay, HepG2; type: cell-based, human; conditions: for IC50: Homo sapiens
Procedure: as §1, §2

human cancer cell lines = experiment: MTT cytotoxicity assay, ranges over the cancer cell line panel; type: cell-based; conditions: Homo sapiens
Procedure: as §1, §2

[1] = MDA-MB-231, Table 1, natural phenanthrenes
[2] = Ca9-22, Table 1, natural phenanthrenes
[3] = A549, Table 1, natural phenanthrenes
[4] = MRC5, Table 1, natural phenanthrenes
[5] = MCF7, Table 1, natural phenanthrenes, MTT
[6] = HepG2, Table 1, natural phenanthrenes
[7] = MDA-MB-231, Table 2, synthesized phenanthrenes
[8] = Table 2, synthesized phenanthrenes
[9] = Ca9-22, Table 2, synthesized phenanthrenes
[10] = A549, Table 2, synthesized phenanthrenes
[11] = MRC5, Table 2, synthesized phenanthrenes
[12] = MCF7, Table 2, synthesized phenanthrenes, MTT
[13] = HepG2, Table 2, synthesized phenanthrenes

| Compound | IC50 (MDA-MB-231; [1]) | IC50 (Hep3B; Table 1, natural phenanthrenes) | IC50 (Ca9-22; [2]) | IC50 (A549; [3]) | IC50 (MRC-5; [4]) | IC50 (MCF-7; [5]) | MCF-7 activity class (from IC50) (MCF-7) | IC50 (HepG2; [6]) | IC50 (MDA-MB-231; [7]) | IC50 (Hep3B; [8]) | IC50 (Ca9-22; [9]) | IC50 (A549; [10]) | IC50 (MRC-5; [11]) | IC50 (MCF-7; [12]) | IC50 (HepG2; [13]) | other results |
| --- | --- | --- | --- | --- | --- | --- | --- | --- | --- | --- | --- | --- | --- | --- | --- | --- |
| COc1cc2c(c(OC)c1OC)-c1c(O)ccc(O)c1CC2 [CA-6] | > 20 µg/mL | 11.5 ± 0.76 µg/mL (≈ 38 µM) | 14.6 ± 0.31 µg/mL (≈ 48.2 µM) | > 20 µg/mL | > 20 µg/mL | > 20 µg/mL | > 20 µg/mL | > 20 µg/mL |  |  |  |  |  |  |  |  |
| COc1cc(OC)c2c(ccc3c(OC)ccc(OC)c32)c1 [Compound 3b, 1,4,5,7-Tetramethoxy-phenanthrene] |  |  |  |  |  |  | > 20 µg/mL |  | > 20 µg/mL | > 20 µg/mL | 18.44 ± 0.11 µg/mL (≈ 61.8 µM) | > 20 µg/mL | > 20 µg/mL | > 20 µg/mL | > 20 µg/mL |  |
| COc1cccc2c1C(=O)c1c(O)c3c(c(O)c1C2=O)C[C@@](O)(C(=O)CO)C[C@@H]3O[C@H]1C[C@H](N)[C@H](O)[C@H](C)O1 [Doxo, Doxorubicin, reference compound] | 0.74 ± 0.01 µg/mL (≈ 1.36 µM) | 0.49 µg/mL (≈ 0.902 µM) | 0.16 ± 0.02 µg/mL (≈ 0.294 µM) | 0.81 ± 0.04 µg/mL (≈ 1.49 µM) | 1.94 ± 0.02 µg/mL (≈ 3.57 µM) | 0.67 ± 0.03 µg/mL (≈ 1.23 µM) |  | 0.22 ± 0.04 µg/mL (≈ 0.405 µM) | 1.12 ± 0.05 µg/mL (≈ 2.06 µM) | 0.42 ± 0.01 µg/mL (≈ 0.773 µM) | 0.14 ± 0.04 µg/mL (≈ 0.258 µM) | 0.63 ± 0.15 µg/mL (≈ 1.16 µM) |  | 0.35 ± 0.09 µg/mL (≈ 0.644 µM) |  |  |
| COc1cc(O)c(-c2c(O)cc(OC)c3c2CCc2cc(O)ccc2-3)c2c1-c1ccc(O)cc1CC2 [CA-11] | 7.42 ± 0.03 µg/mL (≈ 15.4 µM) | 6.28 ± 0.26 µg/mL (≈ 13 µM) | 5.86 ± 0.06 µg/mL (≈ 12.1 µM) | 7.4 ± 0.01 µg/mL (≈ 15.3 µM) | 13.2 ± 0.33 µg/mL (≈ 27.3 µM) | 4.84 ± 0.89 µg/mL (≈ 10 µM) | 1 to 20 µg/mL | 7.17 ± 0.35 µg/mL (≈ 14.9 µM) |  |  |  |  |  |  |  |  |
| COc1cc(O)cc2c1-c1ccc(O)cc1CC2 [CA-10] | 7.56 ± 0.03 µg/mL (≈ 31.2 µM) | 7.24 ± 0.18 µg/mL (≈ 29.9 µM) | 6.11 ± 0.51 µg/mL (≈ 25.2 µM) | 7.46 ± 0.32 µg/mL (≈ 30.8 µM) | 16.4 ± 0.36 µg/mL (≈ 67.7 µM) | 6.77 ± 0.12 µg/mL (≈ 27.9 µM) | 1 to 20 µg/mL | 7.52 µg/mL (≈ 31 µM) |  |  |  |  |  |  |  |  |
| COC1=CC(=O)c2ccc3cc(OC)c(O)c(OC)c3c2C1=O [CA-2, calanquinone B] | > 20 µg/mL | 11.9 ± 0.55 µg/mL (≈ 38 µM) | 14.64 ± 0.11 µg/mL (≈ 46.6 µM) | 18.5 ± 0.29 µg/mL (≈ 58.9 µM) | > 20 µg/mL | 11.9 ± 0.08 µg/mL (≈ 37.9 µM) | 1 to 20 µg/mL | 14.5 ± 0.43 µg/mL (≈ 46 µM) |  |  |  |  |  |  |  |  |
| 5,6,7,5′,6′,7′-hexamethoxy-[8,8′]bi-1,4-phenanthrenequinone [Compound 4c] |  |  |  |  |  |  |  |  |  |  |  |  |  |  |  | IC50 MDA-MB-231 (MDA-MB-231; [8]): 4.09 ± 0.12 µg/mL; IC50 Hep3B (Hep3B; [8]): 4.37 ± 0.00 µg/mL; IC50 Ca9-22 (Ca9-22; [8]): 1.90 ± 0.01 µg/mL; IC50 A549 (A549; [8]): 12.65 ± 0.48 µg/mL; IC50 MRC-5 (MRC-5; [8]): 5.37 ± 0.25 µg/mL; IC50 MCF-7 (MCF-7; Table 2, synthesized phenanthrenes, MTT): 4.71 ± 0.26 µg/mL; Scale Exptl. (MCF-7 activity class) (MCF-7; Table S3): ++ (moderately active (1.0 μg/mL < IC50 < 20.0 μg/mL, ++)); IC50 HepG2 (HepG2; [8]): 6.87 ± 0.10 µg/mL |
| COC1=CC(=O)c2ccc3cc(OC)cc(OC(C)=O)c3c2C1=O [Compound 7b, 5-acetoxy-3,7-dimethoxy-1,4-phenanthrenequinone] |  |  |  |  |  |  | < 1 µg/mL |  | 1.61 ± 0.04 µg/mL (≈ 4.93 µM) | 0.6 ± 0.11 µg/mL (≈ 1.84 µM) | 1.55 ± 0.2 µg/mL (≈ 4.75 µM) | 1.66 ± 0.01 µg/mL (≈ 5.09 µM) | 2.64 ± 0.06 µg/mL (≈ 8.09 µM) | 0.53 ± 0.03 µg/mL (≈ 1.62 µM) | 13.2 ± 0.25 µg/mL (≈ 40.5 µM) | IC50 (human cancer cell lines; HepG2, range over five cancer cell lines, not including HepG2, read-out: IC50 against five cancer cell lines): 0.16 to 1.66 µg/mL (≈ 0.49 to 5.09 µM); IC50 (human cancer cell lines; range over the cancer cell lines tested, read-out: IC50 against various / all human cancer cell lines): 0.08 to 1.66 µg/mL (≈ 0.245 to 5.09 µM) |
| COC1=CC(=O)c2ccc3c(-c4c(OC)c(OC)c(OC)c5c6c(ccc45)C(=O)C=C(OC)C6=O)c(OC)c(OC)c(OC)c3c2C1=O [Compound 5d, 3,5,6,7,3′,5′,6,7′-Octamethoxy-[8,8′]bi-1,4,1′,4′-phenanthrenequinone] |  |  |  |  |  |  | 1 to 20 µg/mL |  | 14.8 ± 0.25 µg/mL (≈ 22.5 µM) | 6.66 ± 0.13 µg/mL (≈ 10.2 µM) | 4.36 ± 0.03 µg/mL (≈ 6.66 µM) | 9.3 ± 0.48 µg/mL (≈ 14.2 µM) | > 20 µg/mL | 13.78 ± 0.06 µg/mL (≈ 21.1 µM) | 1.49 ± 0.01 µg/mL (≈ 2.28 µM) |  |
| COc1cc2ccc3cccc(O)c3c2c(OC)c1O [CA-8] | > 20 µg/mL | > 20 µg/mL | > 20 µg/mL | > 20 µg/mL | > 20 µg/mL | > 20 µg/mL | > 20 µg/mL | > 20 µg/mL |  |  |  |  |  |  |  |  |
| COc1cc2ccc3c(OC)ccc(OC)c3c2c(O)c1OC [Compound 9a, 5-hydroxy-1,4,6,7-tetramethoxy-phenanthrene] |  |  |  |  |  |  | > 20 µg/mL |  | > 20 µg/mL | > 20 µg/mL | > 20 µg/mL | > 20 µg/mL | > 20 µg/mL | > 20 µg/mL | > 20 µg/mL |  |
